Test results from patent US7432225B2, “Selective herbicides based on substituted cyclic keto-enols and safeners” (Bayer CropScience AG, priority 2001, dated 2008).

What was measured:
Winter barley = assay: Post-emergence test, degree of damage to crop plants; assay type: in vivo; settings: rated about three weeks after application
Procedure: (§1) The active compound or safener components are in each case dissolved in a few ml (generally 2-3 ml) of solvent (generally acetone or N,N-dimethyl-formamide), and the solutions are combined and then—if appropriate after addition of an emulsifier—diluted with water to the desired concentration. In general, an aqueous spray liquor was prepared using 0.1% of the additive Renex-36.
(§2) The test plants are grown under controlled conditions (temperature, light, atmospheric humidity) in a greenhouse. The test plants are sprayed when they have reached a height of 5-15 cm. The concentration of the spray liquor is chosen such that the particular amounts of active compound desired are applied in 500 l of water/ha.
(§3) After spraying, the pots with the test plants are kept in a greenhouse chamber under controlled conditions (temperature, light, atmospheric humidity) until the test has ended. About three weeks after the application, the degree of damage to the crop plants is rated in % damage in comparison to the development of the untreated control.
(§4) The figures denote: • 0% no damage (like untreated control) • 100% total destruction/damage

Winter wheat = assay: as above; assay type: in vivo; settings: rated about three weeks after application
Procedure: as §1, §2, §3, §4

[1] = application rate 125 g of ai/ha
[2] = application rate 250 g of ai/ha
[3] = safener alone, application rate 50 g of ai/ha

`CCCC1(C)NC(=O)C(c2c(C)cc(C)cc2C)=C1O` (stereo not drawn) [Example I-1-a-1] was tested, and the “Winter barley observed (% damage)” value (Winter barley; application rate 110 g of ai/ha) was 10%, the “Winter barley observed (% damage)” value (Winter barley; application rate 220 g of ai/ha) was 25% and the “Winter barley observed (% damage)” value (Winter barley; application rate 440 g of ai/ha) was 70%.
In the case of `CCc1cc(Br)cc(C)c1C1=C(O)C2(CCC(C)CC2)NC1=O` (stereo not drawn) [Example I-1-a-2], the “Winter wheat observed (% damage)” value (Winter wheat; [1]) is reported as 10%, the “Winter wheat observed (% damage)” value (Winter wheat; [2]) is reported as 40% and the “Winter barley observed (% damage)” value (Winter barley; application rate 60 g of ai/ha) is reported as 5%. For the same molecule, the “Winter barley observed (% damage)” value (Winter barley; [1]) was 20% and the “Winter barley observed (% damage)” value (Winter barley; [2]) was 65%.
In the case of `CCc1cc(Br)cc(CC)c1C1=C(O)C(C)(C(C)C)NC1=O` (stereo not drawn) [Example I-1-a-3], the “Winter wheat observed (% damage)” value (Winter wheat; [1]) is reported as 10%, the “Winter wheat observed (% damage)” value (Winter wheat; [2]) is reported as 15% and the “Winter barley observed (% damage)” value (Winter barley; [2]) is reported as 40%.
`Cc1cc(-c2ccc(Cl)cc2)cc(C)c1C1=C(O)C2(CCOCC2)NC1=O` [Example I-1-a-4] was tested, and the “Winter barley observed (% damage)” value (Winter barley; application rate 60 g of ai/ha) was 5%, the “Winter barley observed (% damage)” value (Winter barley; [1]) was 35% and the “Winter barley observed (% damage)” value (Winter barley; [2]) was 35%.
In the case of `CCOC(=O)C1=NN(c2ccc(Cl)cc2Cl)C(C)(C(=O)OCC)C1` (stereo not drawn) [Mefenpyr-diethyl, diethyl 1-(2,4-dichloro-phenyl)-4,5-dihydro-5-methyl-1H-pyrazole-3,5-dicarboxylate, reference compound], the “Winter wheat observed (% damage)” value (Winter wheat; [3]) is reported as 0% and the “Winter barley observed (% damage)” value (Winter barley; [3]) is reported as 0%.
In the case of `CCCCCC(C)OC(=O)COc1ccc(Cl)c2cccnc12` (stereo not drawn) [cloquintocet-mexyl, 1-methyl-hexyl 5-chloro-quinolin-8-oxy-acetate, reference compound], the “Winter wheat observed (% damage)” value (Winter wheat; [3]) is reported as 0% and the “Winter barley observed (% damage)” value (Winter barley; [3]) is reported as 0%.
